Measurements taken from patent US4613587A, “Ophthalmic preparations” (Yeda Research and Development Co. Ltd., priority 1983, dated 1986).
Values joined by “and” are separate entries in the source; they are usually repeats but may differ in a detail not shown here. Identical values can stand only once. Like-named read-outs stand apart in the source and are kept apart here.

Key:
[1] = biological target: elastase of P. aeruginosa (Pseudomonas aeruginosa, UniProt P14756); conditions: background; known inhibitors effective at rather large concentrations; cited from earlier work
[2] = biological target: Pseudomonas elastase (Pseudomonas aeruginosa, UniProt P14756); assay: biochemical
Method: Measurements were performed at 25° C. The reaction solutions (2.5 ml) ocnsisted of 0.1-0.2 mM substrate in 0.1M NaCl-0.05M Tris. HCl-0.01M CaCl2, pH 7.5; all were demetallized. The hydrolysis of substrate was first order and rates were determined from plots of (At -A) versus t (At and A represent absorbance at time t and after completion of the reaction, respectively). Inhibition constants (Ki) were derived from plots of ko /ki versus inhibitor concentration (ko and ki are the observed rate constants in absence and presence of inhibitors, respectively).
The inhibition characteristics of […] for Pseudomonas elastase, using furylacryloyl-Gly-Leu-Ala as the substrate, was determined. […] The Ki value for HS-Ac-Phe-Leu was 0.2 μM.

[3] = biological target: T1, Pseudomonas aeruginosa elastase (Pseudomonas aeruginosa, UniProt P14756); assay: Protection of the cornea: pure elastase injected into rabbit cornea together with inhibitor; type: in vivo; conditions: rabbit eye, about 1 μg elastase injected with 0.2 μmole (70 μg) inhibitor
Method: 1. When about 1 μg of the pure elastase is injected into the cornea of a rabbit eye, the cornea "dissolves", swells and perforates within about an hour and a half from the time of the injection of the elastase. When the same amount of enzyme is injected in the presence of 0.2μ mole (70 μg) of the inhibitor mercaptoacetyl-L-phenylalanyl-L leucine, the dissolution effect is postponed to about 9 hours from the injection of the enzyme. […] The perforation of the cornea is prevented.

[4] = system: Pseudomonas aeruginosa; assay: Experimental model of Pseudomonas keratitis in rabbit eyes, antibiotic plus inhibitor versus antibiotic alone; type: in vivo; conditions: 10 mM inhibitor drops combined with 0.3% gentamicin sulfate
Method: 3. The efficacy of combined treatment with antibiotics and the inhibitor HSAc-Phe-Leu was compared with that of the antibiotics alone using an experimental model of Pseudomonas keratitis in rabbit eyes. The inhibitor at a concentration of 10 mM was given, one drop at a time, every 15 min. for 1 hour after infection with the bacteria, and then hourly for additional 44 hours. The antibiotic (0.3% gentamicin sulfate) was applied every 2 hours, starting 16 hours after infection.

[5] = biological target: T1, Pseudomonas aeruginosa elastase; assay: Protection of the cornea: topical inhibitor drops before and after elastase injection into rabbit cornea; type: in vivo; conditions: 10 mM solution
From the text: 2. […] This series of experiments proves that the mercaptoacetyl dipeptide is an effective agent preventing damage to the eye caused by Pseudomonas aeruginosa elastase.

[6] = system: Pseudomonas aeruginosa; assay: Rabbit eyes infected with P. aeruginosa, topical treatment (Expt. A and B), clinical scores and corneal melting; type: in vivo; conditions: for Development of extensive corneal melting (%) / Development of extensive corneal melting, No. of eyes with melting/No. of eyes in group: extensive: 30% of corneal area affected; for Development of corneal melting (%) / Development of corneal melting, No. of eyes with melting/No. of eyes in group: rabbit eyes; for Clinical Scores: individual rabbit eyes, scoring of Table 3, maximum 10
Method: Further experiments were carried out. The schedule of topical treatment is set out in Table 2. The criteria applied to the results are set out in Table 3. […]

Chain of Pseudomonas elastase (P14756 198-498): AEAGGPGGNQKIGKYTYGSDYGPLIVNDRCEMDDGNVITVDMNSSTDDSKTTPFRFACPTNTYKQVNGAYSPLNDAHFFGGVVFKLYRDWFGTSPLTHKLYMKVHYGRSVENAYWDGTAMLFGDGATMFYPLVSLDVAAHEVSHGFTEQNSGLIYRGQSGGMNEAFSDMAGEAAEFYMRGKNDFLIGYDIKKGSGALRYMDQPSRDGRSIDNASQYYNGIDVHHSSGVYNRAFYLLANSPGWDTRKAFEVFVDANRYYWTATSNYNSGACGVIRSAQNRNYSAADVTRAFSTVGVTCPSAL
T1 sequence (P14756 198-498): as above
Chain of elastase of P. aeruginosa (P14756 198-498): as above

For O=C(O)CN(CCN(CC(=O)O)CC(=O)O)CC(=O)O [EDTA], the “inhibition of the elastase” value [1] is given as “inhibited”.

With CC(C)C[C@H](NC(=O)CS)C(=O)N[C@H](Cc1ccccc1)C(=O)O [HS-Ac-Leu-D-Phe] the Ki ([2]; 25° C., pH 7.5, substrate furylacryloyl-Gly-Leu-Ala, read-out: Ki) was 34000 nM.

Work on CC(C)C[C@H](NC(=O)CS)C(=O)N[C@@H](Cc1ccccc1)C(=O)O [HS-Ac-Leu-Phe, 2-mercaptoacetyl-L-leucyl-L-phenylalanine] yielded a Ki [2] of 1500 nM.

In the case of CC(C)C[C@H](NC(=O)[C@H](Cc1ccccc1)NC(=O)CS)C(=O)O [HS-Ac-Phe-Leu, mercaptoacetyl-L-phenylalanyl-L-leucine], the “perforation of the cornea” value [3] is reported as “prevented”, the “damage caused, part of the cornea affected” value ([3]; after about 9 hours) is reported as no more than 10% and the “time from injection of the enzyme to which the dissolution effect of the cornea is postponed” value ([3]; without inhibitor about an hour and a half) is reported as “about 9 hours”. The “severity of the damage caused to the eyes, versus antibiotic alone” value [4] was “significantly lower”, the “dissolution of the cornea” value ([5]; topical drops before and after enzyme injection) was “no "dissolution" of the cornea takes place at all” and the “appearance of the eye” value ([5]; topical drops, remains for many hours after cessation of treatment) was “entirely normal”. For the same molecule, the Ki [2] was 200 nM.

For c1cnc2c(c1)ccc1cccnc12 [O-phenanthroline], the “inhibition of the elastase” value [1] is given as “inhibited”.

For gentamicin sulfate, the “Development of extensive corneal melting (%)” value ([6]; 28 h after infection) was 27%, the “Development of extensive corneal melting, No. of eyes with melting/No. of eyes in group” value ([6]; 28 h after infection) was 4/15 and the “Development of corneal melting (%)” value ([6]; 28 h after infection) was 73%. The “Development of corneal melting, No. of eyes with melting/No. of eyes in group” value ([6]; 28 h after infection) was 11/15, the “Clinical Scores” value ([6]; 28 hours after infection, Expt. A) was 7 and 4 and 3 and 6 and 1 and the “Clinical Scores” value ([6]; 28 hours after infection, Expt. B) was 3 and 2 and 1 and 6. The “Development of extensive corneal melting (%)” value ([6]; 48 h after infection) was 60%, the “Development of extensive corneal melting, No. of eyes with melting/No. of eyes in group” value ([6]; 48 h after infection) was 9/15 and the “Development of corneal melting (%)” value ([6]; 48 h after infection) was 93%. The “Development of corneal melting, No. of eyes with melting/No. of eyes in group” value ([6]; 48 h after infection) was 14/15, the “Clinical Scores” value ([6]; 48 hours after infection, Expt. A) was 7 and 10 and 6 and 4 and 3 and the “Clinical Scores” value ([6]; 48 hours after infection, Expt. B) was 6 and 7 and 5 and 4.
